Data as given in paper PMC3397408, “Natural and synthetic cathelicidin peptides with anti-microbial and anti-biofilm activity against Staphylococcus aureus” (BMC Microbiology, 2011).
Where two headings read alike, the source gives them in different places. Where no end group is shown, it is not given here.

Experiments:
erythrocytes = settings: examined up to 200 μg/ml; cited from earlier work
Procedure: The hemolytic activity of each of the peptides was determined using 2% horse erythrocytes as previously described.

[1] = system: S. aureus biofilm formation; settings: peptide 10 μg/ml, TSB, 24 h, 37°C, polystyrene 96-well plate, crystal violet 570 nm, n = 6, relative to 0 peptide control
Procedure: (§1) C. […] Growth (absorbance at 600 nm) is indicated by gray bars with "0 peptide" control set to 100%. Biofilm detection on a polystyrene 96-well plate at 37°C after 24 h of growth in TSB was detected as the absorbance of crystal violet stain (570 nm). Percent biofilm production is indicated by black bars (n = 6), relative to "0 peptide" control. Each experiment is a representative of at least two independent trials. Error bars indicate the standard deviation from the mean. The asterisk (*) indicates statistically different than the positive control (p < 0.01).
(§2) Biofilm production was measured as previously described with the following modifications. […] The positive control is S. aureus in TSB with no peptide. Six wells were used for each peptide concentration (n = 6). After 24 h, the optical densities (OD) of the wells were taken at 600nm to quantify […]. The biofilm production was measured using the crystal violet stain technique.
All experiments were repeated at least twice, with a representative experiment shown.

S. aureus = assay: Bacterial growth / MIC in TSB; format: cell-based, Staphylococcus aureus; settings: TSB (relatively high salt), peptide concentrations up to the EC50 found in 10 mM sodium phosphate
Procedure: as §1, §2

[2] = system: S. aureus attachment to 96-well plate; assay: Biofilm attachment assay; format: cell-based, Staphylococcus aureus; settings: peptide 1 μg/ml, 1 h, 37°C, TSB culture OD600 ~1.0, n = 16, Student's t test
Procedure: The attachment of Staphylococcus spp. to solid surfaces is largely seen as an essential step in the formation of biofilm. Since most of the peptides tested in our biofilm assays were capable of inhibiting biofilm formation (except for scrambled LL-37), we investigated a possible mechanism for this action. We incubated scrambled LL-37 (negative control), LL-37, D-LL-37, NA-CATH, and NA-CATH:ATRA1-ATRA1 peptides with S. aureus in a 1 hr attachment assay at peptide concentrations of 1 ug/ml, examining for the initial adherence to the wells of the 96 well tissue-culture treated plate.
Figure 3 Attachment assay of S. aureus in the presence of peptide. We tested scrambled LL-37 (negative control), LL-37, D-LL-37, NA-CATH, and NA-CATH:ATRA1-ATRA1 against S. aureus (1 h, 37°C) at 1 μg/ml, only allowing for the initial adherence to the wells.
Biofilm attachment assays were performed in a 96-well microtiter plate (BD Falcon 353072), as previously described. Overnight cultures of S. aureus were grown in TSB to an optical density (600nm) of ~1.0. 200 μl culture was added to the wells, followed by no peptide, scrambled LL-37 , LL-37, D-LL-37, NA-CATH, or NA-CATH:ATRA1-ATRA1 at 1 μg/ml. […] The wells were washed and OD600 measurements were taken, as in the biofilm production experiments, and the average absorbance for each treatment was determined (n = 16).

S. aureus (ATCC 25923) = system: S. aureus (ATCC 25923)
Procedure: S. aureus (ATCC 25923, American Type Culture Collection, Manassas, VA) was grown in Nutrient Broth (Difco Laboratories, Detroit, Mich.) at pH 7, 37°C, 24 h with shaking at 200 rpm. The overnight culture was frozen with 20% glycerol and stored at -80°C. The frozen stock was enumerated (CFU/ml) by dilution plating and growth on Nutrient Agar plates.
For anti-microbial assays, frozen enumerated aliquots were thawed and gently mixed immediately before use. In a 96-well plate (BD Falcon 353072), 1 × 10^5 CFU per well bacteria were incubated with different peptide concentrations (in serial dilutions of 1:10 across the plate) in a solution of buffer containing sterile 10 mM sodium phosphate (pH 7.4) and incubated (3 h, 37°C). Negative control wells contained bacteria with no peptide. Serial dilutions were then carried out in sterile 1x PBS (Fisher Scientific) (pH 7) and plated in triplicate on Nutrient Agar plates, incubated (37°C, 24 h) and counted. […] The EC50 was calculated as previously described.
Each experiment was repeated at least twice, and a representative experiment is shown, for clarity. Errors were reported based on the standard deviation from the mean of the log10 EC50 values. 95% confidence intervals were used to determine whether points were statistically different at p = 0.05.

Compound | hemolytic activity (erythrocytes) | inhibition of biofilm formation [1] | bacterial growth (OD600 at 24 hours) (S. aureus) | attachment of S. aureus to the wells [2] | EC50 (S. aureus (ATCC 25923); EC50 in μg/ml converted with the molecular weight of the TFA salt of the peptide) | EC50 (S. aureus (ATCC 25923); S. aureus ATCC 25923, 1 × 10^5 CFU per well, 3 h, 37°C, 10 mM sodium phosphate (pH 7.4), % survival by CFU counts, plated in triplicate, representative experiment) | fold change of activity against S. aureus, ATRA-1A compared to ATRA-1 (S. aureus (ATCC 25923); p > 0.05)
CC[C@H](C)[C@H](NC(=O)[C@H](CCCCN)NC(=O)[C@H](CCC(=O)O)NC(=O)[C@H](CCCCN)NC(=O)[C@H](CO)NC(=O)[C@H](CCCCN)NC(=O)[C@H](CCCNC(=N)N)NC(=O)[C@H](Cc1ccccc1)NC(=O)[C@H](Cc1ccccc1)NC(=O)[C@H](CC(=O)O)NC(=O)CNC(=O)[C@H](CC(C)C)NC(=O)[C@@H](N)CC(C)C)C(=O)NCC(=O)N[C@@H](CCCCN)C(=O)N[C@@H](CCC(=O)O)C(=O)N[C@@H](Cc1ccccc1)C(=O)N[C@@H](CCCCN)C(=O)N[C@@H](CCCNC(=N)N)C(=O)N[C@H](C(=O)N[C@H](C(=O)N[C@@H](CCC(N)=O)C(=O)N[C@@H](CCCNC(=N)N)C(=O)N[C@H](C(=O)N[C@@H](CCCCN)C(=O)N[C@@H](CC(=O)O)C(=O)N[C@@H](Cc1ccccc1)C(=O)N[C@@H](CC(C)C)C(=O)N[C@@H](CCCNC(=N)N)C(=O)N[C@@H](CC(N)=O)C(=O)N[C@@H](CC(C)C)C(=O)N[C@H](C(=O)N1CCC[C@H]1C(=O)N[C@@H](CCCNC(=N)N)C(=O)N[C@H](C(=O)N[C@@H](CCC(=O)O)C(=O)N[C@@H](CO)C(=O)O)[C@@H](C)O)C(C)C)[C@@H](C)CC)C(C)C)[C@@H](C)CC [LL-37] | similarly low levels | ~ 40% | not decreased | significantly decreased |  |  | 
KRAKKFFKKLK-NH2 [ATRA-1A] |  |  |  |  | 0.31 µM | 0.73 µg/mL | 1.4 fold
